In article PMC8343220, “The selectivity of α‐adrenoceptor agonists for the human α1A, α1B, and α1D‐adrenoceptors” (Pharmacology Research & Perspectives, 2021):

Assays:
human α1A‐adrenoceptor [1] = target: T1, human α1A‐adrenoceptor (Homo sapiens, UniProt P35348); experiment: Intracellular free calcium mobilization, CHO‐α1A cells; format: cell-based; conditions: CHO‐α1A cells; for Log efficacy ratio KD /EC50: binding KD and calcium EC50; for EC50: given as log EC50 (negative), read-out: Intracellular calcium release Log EC50 (converted); for Intracellular calcium release % ionomycin: maximal response as % of 10 µM ionomycin
T1 construct: expressed in transfected cells; host or cells: CHO-K1
T1 sequence (P35348 1-466): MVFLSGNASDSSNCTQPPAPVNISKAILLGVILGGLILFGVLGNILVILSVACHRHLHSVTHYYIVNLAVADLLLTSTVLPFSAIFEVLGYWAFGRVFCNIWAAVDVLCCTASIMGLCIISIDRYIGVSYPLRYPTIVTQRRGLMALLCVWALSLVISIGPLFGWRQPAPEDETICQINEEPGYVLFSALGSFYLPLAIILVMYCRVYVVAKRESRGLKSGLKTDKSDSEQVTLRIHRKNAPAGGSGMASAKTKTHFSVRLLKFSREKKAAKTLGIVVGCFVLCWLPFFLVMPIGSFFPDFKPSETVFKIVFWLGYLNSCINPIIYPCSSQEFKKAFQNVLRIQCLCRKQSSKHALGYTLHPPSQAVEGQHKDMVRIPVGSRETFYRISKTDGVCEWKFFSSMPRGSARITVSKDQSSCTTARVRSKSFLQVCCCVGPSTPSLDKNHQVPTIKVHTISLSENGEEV

[2] = tested on: parental CHO cell line without any transfected receptors; experiment: Intracellular calcium mobilization, parent CHO cells without transfected receptors; format: cell-based, Chinese hamster; conditions: Cricetulus griseus; CHO cells without transfected receptors; response at maximum concentration used (c2), as % of ionomycin (10μM) response; mean ± s.e.m.; read-out: Intracellular calcium release % ionomycin
human α1B‐adrenoceptor = target: T2, human α1B‐adrenoceptor (Homo sapiens, UniProt P35368); experiment: ERK1/2‐phosphorylation (Surefire Alphascreen), CHO‐α1B cells; format: cell-based; conditions: for EC50 / ERK1/2‐phosphorylation % PDBu: for bi‐phasic responses the initial stimulatory part; for EC50: read-out: ERK1/2‐phosphorylation Log EC50 (converted); for ERK1/2‐phosphorylation % PDBu: maximal response as % PDBu response
T2 construct: expressed in transfected cells; host or cells: CHO-K1
T2 sequence (P35368 1-520): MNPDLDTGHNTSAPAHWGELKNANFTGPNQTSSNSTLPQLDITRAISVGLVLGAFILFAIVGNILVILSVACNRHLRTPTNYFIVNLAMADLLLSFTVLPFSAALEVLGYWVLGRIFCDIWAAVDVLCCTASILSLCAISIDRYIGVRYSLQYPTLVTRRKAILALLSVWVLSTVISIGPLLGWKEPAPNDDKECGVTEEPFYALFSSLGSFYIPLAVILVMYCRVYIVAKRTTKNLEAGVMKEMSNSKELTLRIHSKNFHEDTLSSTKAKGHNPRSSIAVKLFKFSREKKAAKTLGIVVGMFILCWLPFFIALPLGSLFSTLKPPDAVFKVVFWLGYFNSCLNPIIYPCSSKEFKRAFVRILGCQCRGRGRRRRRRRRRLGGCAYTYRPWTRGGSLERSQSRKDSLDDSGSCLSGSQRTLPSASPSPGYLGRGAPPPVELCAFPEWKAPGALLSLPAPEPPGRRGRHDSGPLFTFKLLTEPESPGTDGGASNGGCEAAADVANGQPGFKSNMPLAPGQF

human α1A‐adrenoceptor [3] = target: T1, human α1A‐adrenoceptor; experiment: ^3H‐cAMP accumulation, CHO‐α1A cells; format: cell-based; conditions: CHO‐α1A cells; for EC50: 5 h, read-out: cAMP accumulation Log EC50 (converted); for cAMP accumulation % forskolin: % of 10 µM forskolin response; for cAMP accumulation % forskolin at 100 µM: response at 100 μM ligand, no EC50 obtained
[4] = target: T3, human α1D‐adrenoceptor (full length) (Homo sapiens, UniProt P25100); experiment: ^3H‐prazosin whole‐cell radioligand binding, CHO‐α1D cells; conditions: for Kd: CHO‐α1D cells; for Affinity selectivity ratio α1B vs α1D: higher affinity for α1D than α1B; for Affinity selectivity ratio α1A vs α1D: higher affinity for α1D than α1A
T3 construct: human α1D‐adrenoceptor (full length) were used; expressed in transfected cells; host or cells: CHO-K1
T3 sequence (P25100 1-572): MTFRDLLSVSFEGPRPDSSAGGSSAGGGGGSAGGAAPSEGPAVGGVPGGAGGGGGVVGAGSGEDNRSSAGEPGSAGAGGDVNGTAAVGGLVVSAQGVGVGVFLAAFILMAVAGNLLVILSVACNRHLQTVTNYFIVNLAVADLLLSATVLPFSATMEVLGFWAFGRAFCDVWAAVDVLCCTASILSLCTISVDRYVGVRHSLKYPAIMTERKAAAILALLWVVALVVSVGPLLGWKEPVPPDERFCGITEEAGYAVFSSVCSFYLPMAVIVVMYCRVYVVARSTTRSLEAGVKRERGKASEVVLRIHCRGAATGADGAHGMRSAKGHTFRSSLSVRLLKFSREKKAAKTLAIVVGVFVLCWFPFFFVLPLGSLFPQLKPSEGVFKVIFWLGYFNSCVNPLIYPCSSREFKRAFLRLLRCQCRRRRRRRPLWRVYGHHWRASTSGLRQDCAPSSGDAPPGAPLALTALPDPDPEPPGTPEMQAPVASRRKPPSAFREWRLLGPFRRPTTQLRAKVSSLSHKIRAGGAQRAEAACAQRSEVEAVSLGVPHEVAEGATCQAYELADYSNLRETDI

[5] = given as log KD (negative), mean ± SEM, 'early plateau' = specific binding not fully inhibited
[6] = 3H‐prazosin binding Log KD, whole‐cell binding (from Table 1), log values given negative
[7] = Log KD α1D, ^3H‐prazosin whole cell binding, given as log KD (negative), mean ± SEM, 'early plateau' = specific binding not fully inhibited

Structure (SMILES) | Log efficacy ratio KD /EC50 (human α1A‐adrenoceptor [1]) | EC50 (human α1A‐adrenoceptor [1]) | Intracellular calcium release % ionomycin (human α1A‐adrenoceptor [1]) | Emax [2] | EC50 (human α1B‐adrenoceptor; CHO‐α1B cells) | ERK1/2‐phosphorylation % PDBu (human α1B‐adrenoceptor; CHO‐α1B cells) | EC50 (human α1A‐adrenoceptor [3]) | cAMP accumulation % forskolin (human α1A‐adrenoceptor [3]) | Kd [4, 5] | Affinity selectivity ratio α1B vs α1D [4] | Kd [4, 6] | Kd [4, 7] | cAMP accumulation % forskolin at 100 µM (human α1A‐adrenoceptor [3]) | Affinity selectivity ratio α1A vs α1D [4] | ERK1/2‐phosphorylation response in CHO‐α1B cells (human α1B‐adrenoceptor) | ERK1/2‐phosphorylation % PDBu at 100 µM (human α1B‐adrenoceptor; CHO‐α1B cells, response at 100 µM ligand (no EC50 given))
N=C(N)NC(=O)Cc1c(Cl)cccc1Cl [Guanfacine] | 1.95 | 52.5 nM | 56.8 ± 2.2% | 11.5 ± 2.9% | 195 nM | 97.4 ± 2.7% | 2880 nM | 41.1 ± 2.3% | 11700 nM | 11.5 fold |  |  |  |  |  | 
Clc1ccc2nsnc2c1NC1=NCCN1 [Tizanidine] | 1.98 | 36.3 nM | 53.5 ± 1.6% |  | 288 nM | 57.7 ± 5.3% | 1660 nM | 65.6 ± 6.5% |  | 11.5 fold | 3890 nM | 3890 nM |  |  |  | 
CCNCC(O)c1cccc(O)c1 (stereo not drawn) [Etilefrine] | 3.12 | 77.6 nM | 58.1 ± 2.1% |  | 302 nM | 78.8 ± 6.1% |  |  |  | >28.1 fold | 35500 nM | 35500 nM | 82.7 ± 5.5% | 2.9 fold |  | 
COc1ccc(OC)c(C(O)C(C)N)c1 (stereo not drawn) [Methoxamine] | 3.43 | 8.71 nM | 55.9 ± 2.3% |  | 2820 nM | 83.8 ± 5.7% | 4900 nM | 120.0 ± 3.7% |  | >6.6 fold | 151000 nM | 151000 nM |  |  |  | 
c1ccc(C2CC2)c(OCC2=NCCN2)c1 [Cirazoline] | 3.01 | 0.661 nM | 58.2 ± 2.0% | 4.5 ± 0.8% | 120 nM | 82.5 ± 8.6% | 123 nM | 108.9 ± 6.5% | 2950 nM | 2.7 fold |  |  |  |  |  | 
c1ccc2c(CC3=NCCN3)cccc2c1 [Naphazoline] | 2.39 | 1.17 nM | 50.9 ± 2.6% |  | 151 nM | 71.1 ± 7.2% | 269 nM | 57.9 ± 5.7% |  |  | 2040 nM | 2040 nM |  |  |  | 
CC(CCc1ccc(O)cc1)NCCc1ccc(O)c(O)c1 (stereo not drawn) [Dobutamine] | 2.04 | 4.17 nM | 31.3 ± 3.6% |  |  |  | 871 nM | 11.9 ± 1.6% | 4370 nM |  | 4370 nM |  |  |  | did not stimulate any measurable | 56.3 ± 11.3%
C[C@H](N)[C@H](O)c1cccc(O)c1 [Metaraminol] | 3.14 | 61.7 nM | 66.9 ± 3.2% |  | 1450 nM | 92.2 ± 3.9% |  |  | 56200 nM | >17.8 fold | 56200 nM |  | 122.7 ± 9.8% | 1.5 fold |  | 
